Measurements published in US20230219957A1, “SMALL MOLECULE CB002-ANALOGES RESTORE THE P53 PATHWAY AND TARGET S-PHASE CHECKPOINT” (Brown University, priority 2020, published 2023).

Key:
SW480 colon cancer cells = experiment: Label-free quantitative proteomic analysis; assay type: cell-based, human; details: twenty-four hours
Experimental: Proteomic analysis. SW480 cells were seeded at a density of 1×10^6 in 10 cm dishes and treated with dimethyl sulfoxide vehicle control or CB002-analog #4 for twenty-four hours. Floating cells were collected. Adherent cells were trypsinized. Cells were spun down and washed with phosphate-buffered saline. The pelleted cells were frozen and submitted for LC-MS/MS identification and comparative analysis at the Center for Cancer Research Development, Proteomics Core Facility at the Rhode Island Hospital. Samples (cell pellets) were lysed with a lysis buffer (8M urea, 1 mM sodium orthovanadate, 20 mM HEPES, 2.5 mM sodium pyrophosphate, 1 mM β-glycerophosphate, pH 8.0, twenty minutes, 4° C.) followed by sonication at 40% amplification by using a microtip sonicator (QSonica, LLC, Model no. Q55) and cleared by centrifugation (14,000×g, fifteen minutes, 15° C.). Protein concentration was measured (Pierce BCA Protein Assay, Thermo Fisher Scientific, Waltham, Mass., USA). A total of 100 μg of protein per sample was subjected to trypsin digestion. Tryptic peptides were desalted using C18 Sep-Pak plus cartridges (Waters, Milford, Mass., USA) and were lyophilized for forty-eight hours to dryness. […]
Sample preparation for LC-MS/MS analysis. […] Protein concentration was measured (Pierce BCA Protein Assay, Thermo Fisher Scientific) and 100 μg of protein per sample was subjected for trypsin digestion. […]

[1] = tested on: human SW480 colorectal cancer cells; experiment: Tumor xenograft efficacy in NSG mice; assay type: in vivo; details: 50 mg/kg oral gavage three times per week, 5-weeks of treatment
Experimental: (§1) Drug efficacy using in vivo tumor xenografts. In vivo drug efficacy studies were performed on ten NSG female randomized mice per cohort. The mice had tested negative for any pathogen. Tumor inoculation was induced by subcutaneous injection in the left and right dorsal flank, each with a 150 μL suspension of 1-5×10^6 human colon cancer cells in phosphate-buffered saline with Matrigel (1:1). After tumor size reached 100 mm^3, mice were treated 3×/week with dimethyl sulfoxide vehicle or CB002-analog #4 via oral gavage (22-gauge needle) in a solution of 10% dimethyl sulfoxide, 20% Kolliphor® EL (Sigma cat. no. C5135), and 70% phosphate-buffered saline. Mouse weight and tumor measurements were recorded one-two times per week. Tumor volume was calculated as V=0.5*L*W^2, where L is length and W is the width of the tumor. At the end of the assay, mice were euthanized by CO2. All in vivo procedures were performed according to an approved Institutional Animal Care and Use Committee (IACUC) protocol.

[2] = design: species or system mice; details: in vivo, po, 50 mg/kg
Experimental: as §1

[3] = tested on: isogenic HCT116 cell line panel; experiment: Cell-Titer glow cytotoxicity, potency comparison across the panel; assay type: cell-based, human; details: IC50 values, independently of HCT116 p53-status
Experimental: CellTiter-Glo® luminescent cell viability assay. Cells were seeded in 96-well plates at a density of 5×10^3 cells per well. 20 μL of CellTiter-Glo® Reagent was added directly to the wells, following the manufacturers protocol. The bioluminescence signal was determined using an IVIS imaging system, optionally at a period of 48-72 hours after treatment.
CB002-analog #4 is a potent anti-tumor agent in vitro and in vivo. The inventors focused on lead CB002-analog #4 and investigated its therapeutic index in vitro and in vivo. The inventors treated an isogenic HCT116 cell line panel with 100 μM CB002 or 25 μM CB002-analog #4 and established IC50 values by the Cell-Titer glow cytotoxicity assay. Across this panel, CB002-analog #4 has a 20-fold to 30-fold range in IC50 values, independently of the HCT116 p53-status.

Structure (SMILES): Cn1c(=O)c2[nH]c(Nc3cccc(C(F)(F)F)c3)nc2n(C)c1=O [CB002-analog #4]
- CDK4, CKS1B, ERCC6L, MAPK3, and MAX protein abundance (SW480 colon cancer cells): decreased
- tumor volume [1]: lower tumor volume than vehicle control
- tolerability by mouse body weights [2]: well-tolerated
- potency relative to CB002 [3]: 20-30 times
